Results taken from article PMC5838563, “Compounds producing an effective combinatorial regimen for disruption of HIV‐1 latency” (EMBO Molecular Medicine, 2017).

Assays:
PKCδ/θ and IκBα/IκBε = tested on: PKCδ/θ and IκBα/IκBε; set-up: method as in Jiang et al, 2015; details: 12 nM PEP005; ref Jiang et al, 2015; cited from earlier work
CD69 expression on PBMCs = experiment: CD69 expression by flow cytometry on PBMCs from healthy donors; type: cell-based, human
Source text: As discussed earlier, an ideal combination of latency‐reversing compounds would reverse HIV‐1 latency in a broad spectrum of infected cells, without causing global T‐cell activation. Accordingly, we examined the effects of PH02 and PEP005 on T‐cell activation and toxicity on primary cells (PBMCs) isolated from healthy donors. […] Consequently, we examined the effect of lower concentrations of PEP005, alone and in combination with PH02 on these primary cells. […] Based on these observations, we expected that 1 nM PEP005 in combination with PH02 should produce negligible toxicity, and have minimal effects on T‐cell activation, while being capable of causing significant reversal of HIV latency (Fig 4F, Appendix Fig S2B).
Figure 9 Effect of PH02 in combination with PEP005 on T‐cell activation Expression of CD69 on PBMCs from three healthy donors (A, B, C; n = 3) was measured by flow cytometry following 24‐h treatment with 3 μM of PH02 alone or in combination with the indicated concentration of PEP005. Positive control samples were treated with PMA. Statistical significance, as determined by one‐way ANOVA, is indicated: *P < 0.05; **P < 0.005; ***P < 0.0005; ****P < 0.00005; ns, no significant difference. The exact P‐values are indicated in Appendix Table S1.
Luciferase assays were performed in 96‐well plate format, where 100 μl of cell culture containing 1 × 10^5 luciferase reporter cells was plated per well. After the indicated time of treatment, 100 μl of luciferase assay reagent (SuperlightTM luciferase reporter Gene Assay Kit; BioAssay Systems) was added per well, and incubated for 2 min at RT, when luciferase activity was measured on a VictorTM X3 Multilabel Plate Reader. Results were presented relative to the positive control samples treated with 50 nM PMA. T‐cell activation was measured using 1 × 10^5 wild‐type Jurkat^Tat cells or PBMCs purified from healthy donors, treated as indicated. After 24 h, cells were incubated with 2.4G2 antibody to block nonspecific binding and further stained with 5 μl of anti‐human CD69 or an IgG1 isotype control antibody conjugated with PE‐Cy^Tm7. After 30‐min incubation on ice, the cells were washed twice with PBS and analyzed using a Becton Dickinson LSRII flow cytometer (BD Biosciences) to determine mean fluorescence intensity (MFI), using FlowJo software. The mean fluorescence intensity (MFI) obtained from cells stained with IgG isotype antibody control was subtracted from that from cells stained with CD69 to compensate for background (MFICD69‐MFIIgG). IL‐2 production was measured in cell culture supernatants using a human IL‐2 ELISA System (eBioscience). […]

[1] = 3 μM PH02 or 1 nM PEP005 alone, 24 h

SMILES	time post‐treatment at which phosphorylation is induced (PKCδ/θ and IκBα/IκBε) [h]	CD69 induction (CD69 expression on PBMCs; [1])	PEP005 concentration causing CD69 expression at levels similar to PMA (CD69 expression on PBMCs; alone and in combination with 3 μM PH02, 24 h)	CD69 induction (CD69 expression on PBMCs; 3 μM PH02 + 1 nM PEP005, 24 h)
C/C=C(/C)C(=O)O[C@H]1C(C)=C[C@]23C(=O)[C@@H](C=C(CO)[C@@H](O)[C@]12O)[C@H]1[C@@H](C[C@H]3C)C1(C)C [PEP005, ingenol‐3‐angelate, reference compound]	0.5 to 2	did not cause significant CD69 induction	higher than 1 nM	
CC(=O)Oc1ccccc1N(C=C1Sc2ccccc2C1=O)C(C)=O [PH02, 2‐{acetyl[(3‐oxo‐1‐benzothien‐2(3H)‐ylidene)methyl]amino}phenyl acetate]		did not cause significant CD69 induction		did not cause significant CD69 induction
